The subject of one data set is NPC. Briefly: Nuclear import assay (GST-NLS-EGFP) in isolated rat liver nuclei. The class given is biochemical. The settings on record: cytosol and ATP regeneration system, 37 °C. The method, then: (§1) This was verified with a fluorescently labeled nuclear localization signal (NLS), added to purified rat liver nuclei incubated with cytosolic extracts (as a source of soluble import factors) supplemented with an ATP regeneration system, see Supporting Materials for experimental description and S4A Fig. These controls were also reproduced with a digitonin-permeabilized cell assay, which accurately recapitulates capsid-nucleus binding and nuclear import in living cells; see Supporting Materials and data shown in S4B Fig. In agreement with observations in the isolated nuclei system (Fig 3B), we also confirmed via a digitonin-permeabilized cell assay that none of the three compounds interfered with capsid-NPC binding in cells. Attachment of GFP-capsids to nuclei was visualized with SR-SIM (S4C Fig). The addition of WGA prevented capsid binding, showing capsid-NPC binding specificity (S4C Fig).
Rat liver cell nuclei were incubated with GST-NLS-EGFP at 37 °C for 40 min in CBB buffer containing: (i) rat liver cell cytosol, (ii) 1 mg/mL BSA, and (iii) ATP regeneration system. The complete binding mixture was loaded onto coverslips and processed for fluorescence imaging as described above. When indicated, nuclei were preincubated with the polyvalent cationic agents at the concentrations described above for 2 h before performing import assays. […]

In a further data set the test system is HSV-1 C-capsids. Briefly: Binding of GFP-HSV-1 C-capsids to nuclei of digitonin-permeabilized Vero cells (SR-SIM). It is filed as cell-based. The method, then:
as §1
To obtain cytosolic extracts as a source of soluble import factors, Vero cell monolayers (4 x 10^7 cells) were washed with ice-cold PBS and scraped off the plate into 5 ml of cold PBS. […] The samples were then processed for fluorescence imaging as described above. […]

Where no end group is shown, it is not given here.

Turning to `NCCCN(CCCN)CCCCN(CCCN)CCCN` [DAB-Am-4], in the data set on NPC, the “nuclear import of GST-NLS-GFP protein” value is given as “not blocked”. The “binding of GFP-HSV-1 C-capsids to nuclei of permeabilized cells” value in the data set with HSV-1 C-capsids is recorded as “not blocked”.
For the compound RRRRR [Arg^5+], in the data set on NPC, the “nuclear import of GST-NLS-GFP protein” value is “not blocked”. In addition, in the data set with HSV-1 C-capsids, the “binding of GFP-HSV-1 C-capsids to nuclei of permeabilized cells” value is recorded as “not blocked”.
